For this experiment, the species on record is Oryctolagus cuniculus. Put plainly: The compound was tested for antagonism of AII-induced contraction of rabbit aorta rings. The format is functional. The conditions noted are these: read-out: pA2 (converted).

As for `CCCCc1nc(Cl)c(CO)n1Cc1ccc(-c2ccccc2C(=O)O)cc1`, the Kb is 79.4 nM.

Regarding `CCCCc1nc(CO)c(Cl)n1Cc1cc(OC)c(-c2ccccc2C(=O)O)c(OC)c1`, the Kb was 3160 nM.

These data come from ChEMBL document CHEMBL1125174, “Conformationally restricted polysubstituted biphenyl derivatives with angiotensin II receptors antagonist properties” (J Med Chem, 1991).
